# Assay results as given in patent US7521528B2, “Conformationally constrained parathyroid hormone (PTH) analogs with lactam bridges” (The General Hospital Corporation, priority 2003, dated 2009).
# Entries after “also recorded” stand apart in the source; their conditions may differ. Positions of bridges follow the written chain, without caps; N, C: chain ends. Non-standard residues stand in square brackets, D forms with d. Residues, ends and D or L forms follow the SMILES beside them. hArg = N=C(N)NCCCC[C@H](N)C(=O)O; Aib = CC(C)(N)C(=O)O
# What was measured:
# [1] = target: T1, recombinant full-length P1R (Homo sapiens, UniProt Q03431); test: cAMP stimulation in HKRK-B28 cells; type: cell-based; conditions: for Emax: percent of maximum response of PTH(1-14), Table 3; for capacity to stimulate cAMP formation at a single dose: 10 μM
# T1 construct: expressed in transfected cells
# T1 sequence (Q03431 27-593): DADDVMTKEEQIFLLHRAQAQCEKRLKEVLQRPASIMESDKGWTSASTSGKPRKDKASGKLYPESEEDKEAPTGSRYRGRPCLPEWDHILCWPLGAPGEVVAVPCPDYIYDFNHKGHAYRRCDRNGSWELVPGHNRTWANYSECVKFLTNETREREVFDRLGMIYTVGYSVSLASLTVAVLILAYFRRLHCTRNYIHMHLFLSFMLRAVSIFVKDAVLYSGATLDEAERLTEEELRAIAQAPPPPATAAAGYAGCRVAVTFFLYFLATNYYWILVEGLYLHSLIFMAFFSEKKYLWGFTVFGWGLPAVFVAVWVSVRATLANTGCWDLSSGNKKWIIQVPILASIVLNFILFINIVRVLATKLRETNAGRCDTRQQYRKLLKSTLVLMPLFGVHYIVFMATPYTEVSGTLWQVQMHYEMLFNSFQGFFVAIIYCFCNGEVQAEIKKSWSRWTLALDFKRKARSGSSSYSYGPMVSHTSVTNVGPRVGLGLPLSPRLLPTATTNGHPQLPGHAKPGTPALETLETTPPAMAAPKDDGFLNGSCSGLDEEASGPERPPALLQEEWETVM
# Description: Cell Culture. The cell line HKRK-B28 (Takasu, H., et al., J. Bone Miner. Res. 14:11-20 (1999)) was derived from the porcine kidney cell line, LLC-PK1 by stable transfection with plasmid DNA encoding the full-length P1R and expresses ˜280,000 receptors per cell. These cells, as well as COS-7 cells and SaOS-2-B10 cells, were cultured at […] in T-75 flasks ([…]) in Dulbecco's modified Eagle's medium (DMEM) supplemented with fetal bovine serum (10%), penicillin G (20 units/ml), streptomycin sulfate (20 μg/ml) and amphotericin B (0.05 μg/ml) in a humidified atmosphere containing 5% CO2. Stock solutions of EGTA/trypsin and antibiotics were from GIBCO; fetal bovine serum was from Hyclone Laboratories (Logan, Utah). COS-7 cells sub-cultured in 24-well plates were transfected with plasmid DNA (200 ng per well) encoding the wild-type human P1R or truncated human P1R deleted for residues (24-181) (Shimizu, M., et al., J. Biol. Chem. 275:21836-21843 (2000)) that was purified by cesium chloride/ethidium bromide density gradient centrifugation, and FuGENE 6 transfection reagent (Roche Indianapolis Ind.) according to the manufacturer's recommended procedure. All cells, in 24-well plates, were treated with fresh media and shifted to 33° C. for 12 to 24 h prior to assay.
# (§1) cAMP Stimulation. Stimulation of cells with peptide analogs was performed in 24-well plates. Cells were rinsed with 0.5 mL of binding buffer (50 mM Tris-HCl, 100 mM NaCl, 5 mM KCl, 2 mM CaCl2, 5% heat-inactivated horse serum, 0.5% fetal bovine serum, adjusted to pH 7.5 with HCl) and treated with 200 μL of cAMP assay buffer (Delbecco's modified Eagle's medium containing 2 mM 3-isobutyl-1-methylxanthine, 1 mg/mL bovine serum albumin, 35 mM Hepes-NaOH, pH 7.4) and 100 μL of binding buffer containing varying amounts of peptide analog (final volume=300 μL). The medium was removed after incubation for 30 to 60 minutes at room temperature, and the cells were frozen on dry ice, lysed with 0.5 mL 50 mM HCl, and refrozen ([…]). The cAMP content of the diluted lysate was determined by radioimmunoassay. The EC50 response values were calculated using nonlinear regression (see below).
# (§2) Data Calculation. Calculations were performed using Microsoft® Excel. Nonlinear regression analyses of binding and cAMP dose-response data were performed using the four-parameter equation: yp=Min+[(Max−Min)/(1+(IC50/x)^slope)]. The Excel Solver function was utilized for parameter optimization, as described previously (Carter, P. H., et al., Endocrinology 140: 4972-4981 (1999); Bowen, W. P., and Jerman, J. C., Trends in Pharmacol. Sci. 16: 413-417 (1995)). Differences between paired data sets were statistically evaluated using a one-tailed Student's t-test, assuming unequal variances for the two sets.
# The effects of installing a direct covalent linkage between the side chains of the residues at positions 6 and 10 on PTH analog function were also assessed. To do this, paired Glu^6/Lys^10 or Lys^6/Glu^10 substitutions were introduced into an otherwise non-constrained PTH(1-14) analog scaffold AlaValAlaGluIleGln LeuMetHisGlnHarAlaLysTrp-amide (SEQ. ID. NO. 11) and formed an amide bond between the carboxylate side chain group of the introduced glutamate residue and the amino side chain group of the introduced lysine residue. For controls, a portion of each Glu/Lys- or Lys/Glu-substituted PTH(1-14) analog was preserved in the non-bridged form. The four peptides: [Glu^6, Lys^10]PTH(1-14)(linear)(SEQ. ID. NO. 24), [(Glu^6,Lys^10)lac.]PTH(1-14) cyclized via a 6-10 lactam bridge)(SEQ. ID. NO. 3), [Lys^6, Glu^10]PTH(1-14)(SEQ. ID. NO. 25), and [(Lys^6, Glu^10)lac.]PTH(1-14)(SEQ. ID. NO. 26) were first compared at a single dose of 10 μM for the capacity to stimulate cAMP formulation in HKRK-B28 cells, an LLC-PK1-derived cell line that expresses the recombinant full-length P1R at a moderate level (˜280,000 receptors per cell). […]
# P1R-DelNt = target: T2, P1R-DelNt (Homo sapiens, UniProt Q03431); test: cAMP stimulation in LdelNt-2 cells; type: cell-based; conditions: for EC50: cAMP accumulation; for Emax: percent of maximum response of PTH(1-14)
# T2 construct: expressed in transfected cells
# T2 sequence (Q03431 with tags, fused parts or gaps limits assumed): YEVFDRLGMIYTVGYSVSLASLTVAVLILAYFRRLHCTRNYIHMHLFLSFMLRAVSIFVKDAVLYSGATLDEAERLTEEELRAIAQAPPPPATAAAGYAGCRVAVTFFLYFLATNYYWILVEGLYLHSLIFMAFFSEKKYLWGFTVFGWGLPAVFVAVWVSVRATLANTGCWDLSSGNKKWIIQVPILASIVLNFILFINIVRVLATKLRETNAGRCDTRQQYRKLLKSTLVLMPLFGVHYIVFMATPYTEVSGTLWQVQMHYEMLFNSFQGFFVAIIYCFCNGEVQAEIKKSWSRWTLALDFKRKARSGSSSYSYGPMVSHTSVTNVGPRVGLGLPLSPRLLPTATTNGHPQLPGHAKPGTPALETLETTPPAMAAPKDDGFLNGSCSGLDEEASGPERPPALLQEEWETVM
# Description: as §1, §2
# The two-domain hypothesis of the PTH-P1R interaction mechanism predicts that the effects of the substitutions at positions 6 and 10 observed with the above PTH(1-11) analogs involve interactions (direct or indirect) that occur within the juxtamembrane region of the receptor. To test this hypothesis, P1R-DelNt was utilized. P1R-DeNt is a P1R construct that is deleted for most of the N domain yet which retains nearly full capacity to be expressed on the cell surface and to stimulate cAMP formation in response to N-terminal PTH analogs, and an LLC-PK1-derived cell line was herein established, LdelNt-2, which stably expresses P1R-DelNt.
Emax [1] [%],EC50 (P1R-DelNt) [nM],Emax (P1R-DelNt) [%],SMILES,other results
100 ± 2,,,"CC[C@H](C)[C@H](NC(=O)[C@H](CCC(=O)O)NC(=O)[C@H](C)NC(=O)[C@@H](NC(=O)[C@H](C)N)C(C)C)C(=O)N[C@@H](CCC(N)=O)C(=O)N[C@@H](CC(C)C)C(=O)N[C@@H](CCSC)C(=O)N[C@@H](Cc1c[nH]cn1)C(=O)N[C@@H](CCC(N)=O)C(=O)N[C@@H](CCCCNC(=N)N)C(=O)N[C@@H](C)C(=O)N[C@@H](CCCCN)C(=O)N[C@@H](Cc1c[nH]c2ccccc12)C(N)=O [PTH(1-14) (SEQ. ID. NO. 11), [Ala^1,3,12,Gln^10,Har^11,Trp^14]PTH(1-14)amide] (H-AVAEIQLMHQ[hArg]AKW-NH2)",maximum cAMP response observed ([1]; n=3): 359±52 picomoles of cAMP per well
52 ± 3,,,"CC[C@H](C)[C@H](NC(=O)[C@H](CCC(=O)O)NC(=O)[C@H](C)NC(=O)[C@@H](NC(=O)[C@H](C)N)C(C)C)C(=O)N[C@H]1CCC(=O)NCCCC[C@@H](C(=O)N[C@@H](CCCCNC(=N)N)C(=O)N[C@@H](C)C(=O)N[C@@H](CCCCN)C(=O)N[C@@H](Cc2c[nH]c3ccccc23)C(N)=O)NC(=O)[C@H](Cc2c[nH]cn2)NC(=O)[C@H](CCSC)NC(=O)[C@H](CC(C)C)NC1=O [[(Glu^6, Lys^10)lac.]PTH(1-14), AlaValAlaGluIleGluLeuMetHisLysHarAlaLysTrp cyclized via a 6-10 lactam bridge] (H-AVAEIELMHK[hArg]AKW-NH2; lactam 6-10)",capacity to stimulate cAMP formation at a single dose [1]: comparable to that of its linear counterpart
59 ± 3,,,"CC[C@H](C)[C@H](NC(=O)[C@H](CCC(=O)O)NC(=O)[C@H](C)NC(=O)[C@@H](NC(=O)[C@H](C)N)C(C)C)C(=O)N[C@H]1CCCCNC(=O)CC[C@@H](C(=O)N[C@@H](CCCCNC(=N)N)C(=O)N[C@@H](C)C(=O)N[C@@H](CCCCN)C(=O)N[C@@H](Cc2c[nH]c3ccccc23)C(N)=O)NC(=O)[C@H](Cc2c[nH]cn2)NC(=O)[C@H](CCSC)NC(=O)[C@H](CC(C)C)NC1=O [[(Lys^6, Glu^10)lac.]PTH(1-14)] (H-AVAEIKLMHE[hArg]AKW-NH2; lactam 6-10)","capacity to stimulate cAMP formation at a single dose [1]: more active than its linear counterpart; also recorded: significantly (P<0.0001) greater than that elicited by the linear control; potency relative to linear [Lys^6, Glu^10]PTH(1-14) ([1]; dose-response analyses): six-fold more potent"
,6.6 ± 1.1,,"CC[C@H](C)[C@H](NC(=O)[C@H](CCC(=O)O)NC(=O)C(C)(C)NC(=O)[C@@H](NC(=O)C(C)(C)N)C(C)C)C(=O)N[C@@H](CCC(N)=O)C(=O)N[C@@H](CC(C)C)C(=O)N[C@@H](CCSC)C(=O)N[C@@H](Cc1c[nH]cn1)C(=O)N[C@@H](CCC(N)=O)C(=O)N[C@@H](CCCCNC(=N)N)C(=O)N[C@@H](C)C(=O)N[C@@H](CCCCN)C(=O)N[C@@H](Cc1c[nH]c2ccccc12)C(N)=O [[Aib]PTH(1-14), AibValAibGluIleGlnLeuMetHisGlnHarAlaLysTrp-amide] (H-[Aib]V[Aib]EIQLMHQ[hArg]AKW-NH2)",fold increase in cAMP formation/accumulation (P1R-DelNt): 50 fold
,24 ± 7,100 ± 3,"CC[C@H](C)[C@H](NC(=O)[C@H](CCC(=O)O)NC(=O)C(C)(C)NC(=O)[C@@H](NC(=O)C(C)(C)N)C(C)C)C(=O)N[C@@H](C)C(=O)N[C@@H](CC(C)C)C(=O)N[C@@H](CCSC)C(=O)N[C@@H](Cc1c[nH]cn1)C(=O)N[C@@H](C)C(=O)N[C@@H](CCCCNC(=N)N)C(=O)N[C@@H](C)C(=O)N[C@@H](CCCCN)C(=O)N[C@@H](Cc1c[nH]c2ccccc12)C(N)=O [[Aib^1,3, Ala^6,10]PTH(1-14)] (H-[Aib]V[Aib]EIALMHA[hArg]AKW-NH2)","potency relative to [Aib^1,3, Ala^6]PTH(1-14) (P1R-DelNt): six-fold higher"
,,101 ± 4,"CC[C@H](C)[C@H](NC(=O)[C@H](CCC(=O)O)NC(=O)C(C)(C)NC(=O)[C@@H](NC(=O)C(C)(C)N)C(C)C)C(=O)N[C@@H](C)C(=O)N[C@@H](CC(C)C)C(=O)N[C@@H](CCSC)C(=O)N[C@@H](Cc1c[nH]cn1)C(=O)N[C@@H](CCC(N)=O)C(=O)N[C@@H](CCCCNC(=N)N)C(=O)N[C@@H](C)C(=O)N[C@@H](CCCCN)C(=O)N[C@@H](Cc1c[nH]c2ccccc12)C(N)=O [[Aib^1,3, Ala^6]PTH(1-14)] (H-[Aib]V[Aib]EIALMHQ[hArg]AKW-NH2)",potency weaker than parent [Aib]PTH(1-14) (P1R-DelNt): 22 fold
,81 ± 65,104 ± 7,"CC[C@H](C)[C@H](NC(=O)[C@H](CCC(=O)O)NC(=O)C(C)(C)NC(=O)[C@@H](NC(=O)C(C)(C)N)C(C)C)C(=O)N[C@@H](CCC(N)=O)C(=O)N[C@@H](CC(C)C)C(=O)N[C@@H](CCSC)C(=O)N[C@@H](Cc1c[nH]cn1)C(=O)N[C@@H](C)C(=O)N[C@@H](CCCCNC(=N)N)C(=O)N[C@@H](C)C(=O)N[C@@H](CCCCN)C(=O)N[C@@H](Cc1c[nH]c2ccccc12)C(N)=O [[Aib^1,3, Ala^10]PTH(1-14)] (H-[Aib]V[Aib]EIQLMHA[hArg]AKW-NH2)",potency weaker than parent [Aib]PTH(1-14) (P1R-DelNt): 12 fold
52 ± 3,,,"CC[C@H](C)[C@H](NC(=O)[C@H](CCC(=O)O)NC(=O)[C@H](C)NC(=O)[C@@H](NC(=O)[C@H](C)N)C(C)C)C(=O)N[C@@H](CCC(=O)O)C(=O)N[C@@H](CC(C)C)C(=O)N[C@@H](CCSC)C(=O)N[C@@H](Cc1c[nH]cn1)C(=O)N[C@@H](CCCCN)C(=O)N[C@@H](CCCCNC(=N)N)C(=O)N[C@@H](C)C(=O)N[C@@H](CCCCN)C(=O)N[C@@H](Cc1c[nH]c2ccccc12)C(N)=O [[Glu^6, Lys^10]PTH(1-14)] (H-AVAEIELMHK[hArg]AKW-NH2)",
